Consider 48 compounds from patent publication US20150164899A1, “INHIBITION OF ADAPTOR ASSOCIATED KINASE 1 FOR THE TREATMENT OF PAIN” (priority 2012, published 2015).

Each structure is given as a SMILES string. Like-named read-outs stand apart in the source and are kept apart here.

Test [1] has as its target T1, AAK1 (full length human) in transfected HEK293F cells (Homo sapiens, UniProt Q2M2I8).
T1 construct: expressed in transfected cells; host or cells: HEK293F
The experiment in a line: HEK281 cell-based assay (phospho-mu2 Western blot). The following applies: HEK281 cell-based assay, read-out: CBA IC50. The protocol:
HEK293F cells were cultured in media containing DMEM (Gibco, cat. #11965), 10% FBS (SAFC Biosciences, cat. #12103C), 1×GPS (glutamine, penicillin and streptomycin). On day one, cells were plated on a 10 cm dish so that they are ˜80% confluent at time of transfection. Roughly 12 million cells were in a 10 cm dish at time of transfection. On day two, each dish was transfected with 48 ug DNA and 144 ul Lipofectamine 2000 (Invitrogen, cat.#11668-019). The DNA was comprised of a mixture (per 10 cm dish) containing 3 ug AAK1/HA/pIRES (full length human, NCBI accession no. NP_055726.2), 45 μg Flag/AP2MI/pcDNA (full length human), and 1.5 ml OPTI-MEM. The Lipofectamine 2000 is made up of a mixture (per 10 cm dish) containing 144 μl Lipofectamine 2000 and 1.5 ml OPTI-MEM. Each mixture was transferred to individual 15 ml tubes and incubated at RT for 5 minutes, and then the two mixes were combined and incubated at RT for 20 minutes. Growth media was then aspirated from each 10 cm plate and replaced with 10 ml of DMEM+10% FBS (no GPS). Finally, 3 ml DNA/Lipofectamine mix was added to each 10 cm dish and mix gently followed by incubate of plate overnight at 37° C. and 5% CO2.
On day three, compounds were diluted in 100% DMSO at 1000× final concentration, followed by 3-fold serial dilutions for a total of 5 concentrations tested. Four compounds were tested per 10 cm dish. One ul of each compound dilution was then pipetted into a deep-well, 96-well plate, followed by addition of 500 μl DMEM+0.5% FBS into each well for a 2× final concentration of each compound. Cells were resuspended in a 10 cm dish by simple pipetting (HEK293 cells come off the plate that easy at this point) and then transferred to a 50 ml conical tube and pelleted by centrifugation at 1000 rpm for 5 min. Cell pellets were then resuspended in 2.75 ml DMEM+0.5% FBS per 10 cm dish and 100 μl of cell suspension transferred into each well of 96-well TC plate. Finally, 100 μl of 2× compound diluted in DMEM+0.5% FBS was then added into wells containing cell suspension for a 1× final concentration. Plates were then incubated at 37° C. and 5% CO2 for 3 hours followed by transferring of cell suspensions from each well into 12-tube PCR strips. The PCR strips were spun in a tip rack at 1000 rpm for 5 minutes to pellet cells and media was then removed by pipetting without disturbing the cell pellet.
To prepare for Western Blot analysis, cell pellets were resuspend in 40 ul 1×LDS-PAGE sample buffer (Invitrogen, cat.# NP0008)+2× Halt phophatase and protease inhibitor cocktail (Thermo Scientific, cat.#1861284), followed by sonicating each with microtip sonicator set at 5 for 8-10 seconds. Five ul of 10× NuPage Sample Reducing Agent (with […]) was to each sample followed by heat denaturing at 70 C. for 10 min on PCR machine. A total of 10 μl per sample was loaded into each lane of a 4-20% Tris-Glycine Criterion 26-well gel (Biorad, cat.#345-0034) for the phospho-mu2 blot and 10 μl per lane in a 4-12% Bis-Tris (+MES buffer) NuPAGE 26-well gel (Invitrogen, cat.# WG1403BX10) for the mu2 blot. For controls, 2 ng of phospho-mu2 or 20 ng mu2/Flag proteins were loaded in the last well of each gel. After SDS-PAGE, samples on each gel were transferred to PVDF membrane using an iBlot and membranes were blocked for one hour in TBST+5% milk, followed by wash 3× for 5-10 min with TBST. Criterion gels were probed with rabbit anti-phospho-mu2 (1:5000; a rabbit polyclonal antibody produced by New England Peptide and affinity purified at Lexicon) in TBST+5% BSA, whereas, NuPAGE gels were probed with mouse anti-Flag (1:500; Sigma, cat.# F1804) in TBST+5% milk, and these primary antibodies were incubated overnight at 4° C. on a rocker.

Test [2] deals with T2, AAK1 (full-length human protein) (Homo sapiens, UniProt Q2M2I8).
T2 construct: NP_055726.2
Description: P81 filter plate assay. The test is classed as biochemical. The protocol:
Compounds were serially diluted into a Labcyte LDV plate (Labcyte, cat# LP-0200) using a Mutiprobe (PerkinElmer) and Biomek FX (Beckman Coulter) so that the highest compound concentration was at 96 μM. Compounds were then pinged (75 nL per well) into a Greiner 384-well reaction plate (Greiner, #781076) using an ECHO 550 Liquid Handler (Labcyte). A total of 12 μl reaction buffer (IMAP buffer containing Tween and DTT, from Molecular Devices) was then added to each well of columns 1 and 13 for the negative controls and 12 μl of 2×AAK1 (0.2 nM full-length human protein, NCBI accession no. NP_055726.2) was added to the remaining wells. Enzyme was then pre-incubated with compound for 10 minutes at RT. Reactions were initiated upon Minitrak (PerkinElmer) addition of 12 μl substrate mix containing 2× Mu2 (0.2 μM, full length human protein), 2× cold ATP (2 μM), and 1.3 μCi of hot ^33P-ATP. Reactions proceeded for one hour at RT. Meanwhile, Millipore 384-well P81 filter plates (Millipore, catalog # MZPHN0W10) were placed on a plate washer (Zoom Z W, from Titertek) and pre-wet with 50 μl 1% phosphoric acid. Kinase reactions were then stopped upon addition of 24 μl of 2% phosphoric acid to each well and the Minitrak was then used to transfer 40 μl from each well into the pre-wet Millipore 384-well P81 filter plates. Reaction mixtures were incubated for 10 minutes at RT in the P81 plates, followed by washing five times with 100 μl/well of 1% phosphoric acid using the Zoom filter washer. The bottom of each filter plate was sealed followed by addition of 20 μl Microscint 40 to each well, sealing the top of the plates with Flashplate cover, and then waiting one hour until reading on the TopCount (PerkinElmer).

[3] abbreviates: pyrazolo[1,5-a]pyrimidine-based inhibitors.
The mark [4] stands for this setting: Table 1 imidazo[1,2-b]pyridazines.

T1 sequence (Q2M2I8 1-863 isoform Q2M2I8-2): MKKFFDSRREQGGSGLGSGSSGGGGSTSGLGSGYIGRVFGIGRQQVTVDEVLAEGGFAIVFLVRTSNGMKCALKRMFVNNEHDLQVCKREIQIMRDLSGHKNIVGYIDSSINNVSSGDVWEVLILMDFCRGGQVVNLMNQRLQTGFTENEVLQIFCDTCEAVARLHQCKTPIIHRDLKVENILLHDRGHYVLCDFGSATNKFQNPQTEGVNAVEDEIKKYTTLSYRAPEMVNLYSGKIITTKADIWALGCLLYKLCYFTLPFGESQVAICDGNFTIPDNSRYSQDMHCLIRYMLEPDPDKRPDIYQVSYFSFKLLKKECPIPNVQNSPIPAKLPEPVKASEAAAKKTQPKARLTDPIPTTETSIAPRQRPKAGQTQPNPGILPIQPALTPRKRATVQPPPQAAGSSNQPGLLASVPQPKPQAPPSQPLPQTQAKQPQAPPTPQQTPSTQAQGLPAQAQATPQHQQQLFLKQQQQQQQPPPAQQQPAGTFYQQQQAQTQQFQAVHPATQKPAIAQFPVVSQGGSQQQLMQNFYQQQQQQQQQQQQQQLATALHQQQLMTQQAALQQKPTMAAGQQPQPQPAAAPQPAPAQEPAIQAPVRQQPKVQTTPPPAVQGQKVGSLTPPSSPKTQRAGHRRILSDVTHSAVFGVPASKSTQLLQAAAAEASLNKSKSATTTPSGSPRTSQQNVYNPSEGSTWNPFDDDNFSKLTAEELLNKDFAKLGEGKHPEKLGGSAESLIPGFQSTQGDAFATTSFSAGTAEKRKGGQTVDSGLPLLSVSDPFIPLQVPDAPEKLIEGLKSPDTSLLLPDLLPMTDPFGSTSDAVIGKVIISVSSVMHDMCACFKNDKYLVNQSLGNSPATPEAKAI
T2 sequence (Q2M2I8 1-863 isoform Q2M2I8-2): as above

What is called IC50 is the point on the concentration scale where inhibition reaches its midpoint. Consider `COc1ncccc1-c1cnn2ccc(N3CCN(C(=O)OCCF)CC3)nc12`, for which the IC50 in test [1] (setting [3]) and in test [2] (setting [3]) was not above 10 nM in each case.
Take `COCCOC(=O)N1CCN(c2ccn3ncc(-c4ccccc4OC)c3n2)CC1`: the IC50 in test [2] (setting [3]) is not above 10 nM.
Take `COc1ncccc1-c1cnn2ccc(NCCCC(F)(F)F)nc12`: the IC50 was not above 100 nM in test [1] (setting [3]) and not above 10 nM in test [2] (setting [3]).
With `FC(F)(F)CN1CCCC1CNc1ccn2ncc(Br)c2n1` (stereo not drawn), the IC50 is not above 100 nM in test [1] (setting [3]) and not above 10 nM in test [2] (setting [3]).
`COc1ncccc1-c1cnn2ccc(N3CCN(S(=O)(=O)CC(C)C)CC3)nc12`: in test [2] (setting [3]), the IC50 is not above 100 nM.
On the same count and under the same terms, the result for `COc1ncccc1-c1cnn2ccc(N(CCCC(F)(F)F)C(C)=O)nc12` reads not above 1000 nM.
As to `CCOc1ccccc1-c1cnn2ccc(NC[C@@H]3CCC(=O)N3CCC(C)(C)C)nc12`, the figures for the IC50 in test [1] (setting [3]) and in test [2] (setting [3]) were not above 100 nM and not above 10 nM, respectively.
The like results for `COc1ccccc1-c1cnn2ccc(NC[C@@H]3CCC(=O)N3CCC(C)(C)C)nc12` were, in that order, not above 10 nM and not above 10 nM.
Turning to `COc1ccccc1-c1cnc2ccc(NC[C@@H]3CCC(=O)N3CCC(C)(C)C)nn12`, the IC50 was not above 1000 nM in test [1] (setting [4]) and not above 10 nM in test [2] (setting [4]).
As to `COc1ncccc1-c1cnn2ccc(NC[C@@H]3CCC(=O)N3CCC(C)(C)C)nc12`, the IC50 in test [1] (setting [3]) is not above 100 nM; in test [2] (setting [3]) it was not above 10 nM.
On to `CC(C)(C)CCN1C(=O)CC[C@H]1CNc1ccn2ncc(-c3ccccc3)c2n1`, for which the half-inhibitory concentration (IC50) in test [2] (setting [3]) was not above 10 nM.
Still for that read-out and setting: next, `CN(C(=O)CC1CC1)[C@H]1CCN(c2ccn3ncc(-c4ccccn4)c3n2)C1`: not above 100 nM.
Still for that read-out and setting: next, `COc1ccccc1-c1cnn2ccc(N3CC[C@H](N(C)C(=O)CC(F)(F)F)C3)nc12`: not above 100 nM.
With `CN(C(=O)CC(C)(C)C)[C@H]1CCN(c2ccc3ncc(-c4cccnc4O)n3n2)C1`, the IC50 in test [1] (setting [4]) is not above 1000 nM; in test [2] (setting [4]), not above 100 nM.
With `CN(C(=O)CC(F)(F)F)[C@H]1CCN(c2ccn3ncc(Br)c3n2)C1`, the IC50 in test [2] (setting [3]) was not above 100 nM.
Still for that read-out and setting: the result for `CN(C(=O)N1CCCC1)[C@H]1CCN(c2ccn3ncc(Br)c3n2)C1` reads not above 100 nM.
In test [2] (setting [4]), `CN(C(=O)N1CCCC1)[C@H]1CCN(c2ccc3ncc(-c4ccccn4)n3n2)C1` came in with an IC50 not above 100 nM.
In turn, `CCCC(=O)N(C)[C@H]1CCN(c2ccn3ncc(-c4ccccn4)c3n2)C1` came in with an IC50 in test [2] (setting [3]) not above 1000 nM.
The compound `COc1ccccc1-c1cnn2ccc(N3CC[C@H](N(C)C(=O)OC(C)C)C3)nc12` gave an IC50 in test [2] (setting [3]) not above 100 nM.
For the compound `CC(C)OC(=O)N(C)[C@H]1CCN(c2ccn3ncc(-c4ccncc4)c3n2)C1`, the IC50 in test [2] (setting [3]) was not above 100 nM.
With `Cc1cc(-c2cnn3ccc(N4CC[C@H](N(C)C(=O)OC(C)(C)C)C4)nc23)ccn1`, the IC50 in test [1] (setting [3]) was not above 100 nM; in test [2] (setting [3]), not above 10 nM.
The like results for `COc1ncccc1-c1cnn2ccc(N3CCN(C(=O)OC4CCCC4)CC3)nc12` were, in that order, not above 10 nM and not above 10 nM.
For `CCOC(=O)N1CCN(c2ccn3ncc(-c4cccnc4OCC)c3n2)CC1`, the IC50 in test [1] (setting [3]) and in test [2] (setting [3]) was not above 10 nM in each case.
In the case of `CCOC(=O)N1CCN(c2ccn3ncc(-c4cccnc4OC)c3n2)CC1`, the IC50 was not above 100 nM in test [1] (setting [3]) and not above 10 nM in test [2] (setting [3]).
In test [2] (setting [3]), `CCOC(=O)c1cnn2ccc(N3CCN(C(=O)OC(C)C)CC3)nc12` gave an IC50 not above 100 nM.
In turn, `CC(C)Cn1cc(-c2cnn3ccc(N4CCN(C(=O)OC(C)C)CC4)nc23)cn1` returned an IC50 in test [2] (setting [3]) not above 100 nM.
As for `Cc1nn(C)c(C)c1-c1cnn2ccc(N3CCN(C(=O)OC(C)C)CC3)nc12`, in test [2] (setting [3]), the IC50 is not above 100 nM.
`CC(C)OC(=O)N1CCN(c2ccn3ncc(-c4cccnc4Cl)c3n2)CC1`: the IC50 in test [1] (setting [3]) was not above 1000 nM; in test [2] (setting [3]) it was not above 100 nM.
The like results for `CC(C)OC(=O)N1CCN(c2ccn3ncc(-c4cccnc4O)c3n2)CC1` were, in that order, not above 100 nM and not above 10 nM.
The like results for `CC(C)OC(=O)N1CCN(c2ccn3ncc(-c4cccnc4OC(C)C)c3n2)CC1` were, in that order, not above 100 nM and not above 10 nM.
Turning to `COc1ncccc1-c1cnn2ccc(N3CCN(C(=O)OC(C)C)CC3=O)nc12`, the IC50 in test [1] (setting [3]) and in test [2] (setting [3]) was not above 10 nM in each case.
`COc1ncccc1-c1cnn2ccc(C3=CCN(C(=O)OC(C)C)CC3)nc12`: the IC50 in test [1] (setting [3]) and in test [2] (setting [3]) was not above 10 nM each time.
For `COc1ncccc1-c1cnn2ccc(N3CCN(C(=O)OC(C)C)C(C)(C)C3)nc12`, the IC50 in test [2] (setting [3]) was not above 100 nM.
As to `COc1ccc(-c2cnn3ccc(N4CCN(C(=O)OC(C)C)CC4)nc23)c(OC)n1`, the IC50 in test [1] (setting [3]) and in test [2] (setting [3]) was not above 10 nM each time.
In test [2] (setting [3]), `CCOc1cccc(-c2cnn3ccc(N4CCN(C(=O)OC(C)C)CC4)nc23)c1` showed an IC50 not above 10 nM.
On the same count and under the same terms, the result for `CC(C)OC(=O)N1CCN(c2ccn3ncc(-c4cnccc4F)c3n2)CC1` reads not above 100 nM.
`COc1ccnc(-c2cnn3ccc(N4CCN(C(=O)OC(C)C)CC4)nc23)c1`: in test [2] (setting [3]), the IC50 is not above 10 nM.
Take `CCNC(=O)c1cnn2ccc(N3CCN(C(=O)OC(C)C)CC3)nc12`: in test [2] (setting [3]), the IC50 was not above 100 nM.
With `CC(C)NC(=O)c1cnn2ccc(N3CCN(C(=O)OC(C)C)CC3)nc12`, the IC50 in test [2] (setting [3]) was not above 1000 nM.
As for `CNC(=O)c1cnn2ccc(N3CCN(C(=O)OC(C)C)CC3)nc12`, the IC50 in test [2] (setting [3]) was not above 100 nM.
As for `CC(C)OC(=O)N1CCN(c2ccn3ncc(-c4cnccn4)c3n2)CC1`, in test [2] (setting [3]), the IC50 is not above 100 nM.
The same measure, in the same setting: the result for `CC(C)OC(=O)N1CCN(c2ccn3ncc(-c4cccnc4)c3n2)CC1` reads not above 10 nM; that for `CC(C)OC(=O)N1CCN(c2ccn3ncc(-c4cncnc4)c3n2)CC1`, not above 100 nM.
Still for that read-out and setting: next, `CC(C)OC(=O)N1CCN(c2ccn3ncc(C(C)C)c3n2)CC1`: not above 100 nM; `CC(C)OC(=O)N1CCN(c2ccn3nccc3n2)CC1`: not above 10 nM.
The same measure, in the same setting: next, `COc1ncccc1-c1cnn2ccc(N3CC(N(C)C(=O)OC(C)C)C3)nc12`: not above 100 nM.
Consider `CC(C)(C)OC(=O)N1CC=C(c2ccn3nccc3n2)CC1`, for which the IC50 in test [2] (setting [3]) is not above 100 nM.
For the compound `COc1ncccc1-c1cnn2ccc(N3CC(N(C)C(=O)OC(C)(C)C)C3)nc12`, the half-maximal inhibitory concentration (IC50) in test [2] (setting [3]) was not above 1000 nM.
